The assay addresses T1, Human plasma kallikrein (Homo sapiens, UniProt P03952).
T1 construct: yields a heavy chain (371 amino acids) and a light chain (248 amino acids); purchased Enzyme Research Laboratories
The assay is described as follows: Kallikrein Assay (fluorogenic substrate hydrolysis, AFC release). The assay is classed as biochemical. The conditions noted are these: purified Human plasma kallikrein 0.5 nM; substrate Acetyl-K—P—R-AFC 100 mM; 50 mM HEPES pH 7.4. Summed up: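 Purified human plasma kallikrein (0.5 nM final) with Acetyl-K-P-R-AFC substrate (final ≤0.2 Km) in 50 mM HEPES pH 7.4, 150 mM NaCl, 5 mM CaCl2, 0.1% PEG 8000, after enzyme–inhibitor equilibration; room temperature or 37° C. AFC fluorescence (405 Ex/510 Em nm) under linear conditions; IC50 by four-parameter fit, Ki via Cheng-Prusoff.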

The text below walks through data of patent US12528786B2, “Plasma kallikrein inhibitors” (Merck Sharp & Dohme LLC, priority 2020, dated 2026).

Structures are written as SMILES.

T1 sequence (P03952 391-638 limits assumed): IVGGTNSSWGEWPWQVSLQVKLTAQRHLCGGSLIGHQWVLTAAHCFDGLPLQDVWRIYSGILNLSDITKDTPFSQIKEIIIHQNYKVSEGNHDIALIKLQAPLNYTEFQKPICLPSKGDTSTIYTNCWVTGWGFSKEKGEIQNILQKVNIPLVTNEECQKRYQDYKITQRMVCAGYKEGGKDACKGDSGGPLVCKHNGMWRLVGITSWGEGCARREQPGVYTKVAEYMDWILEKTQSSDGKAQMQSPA
T1 sequence (P03952 20-390 partner limits assumed): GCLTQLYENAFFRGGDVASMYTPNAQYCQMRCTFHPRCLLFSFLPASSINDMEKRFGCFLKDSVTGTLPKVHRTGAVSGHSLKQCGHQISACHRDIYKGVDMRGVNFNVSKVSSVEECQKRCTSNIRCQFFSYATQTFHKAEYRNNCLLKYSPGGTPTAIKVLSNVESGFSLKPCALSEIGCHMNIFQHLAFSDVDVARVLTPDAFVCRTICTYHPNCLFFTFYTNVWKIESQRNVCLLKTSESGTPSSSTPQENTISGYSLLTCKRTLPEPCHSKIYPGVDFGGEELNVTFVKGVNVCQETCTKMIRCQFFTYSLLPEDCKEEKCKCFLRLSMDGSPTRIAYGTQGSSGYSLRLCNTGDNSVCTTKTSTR

`Cc1nc(N2C[C@H]3C[C@H]3C2=O)ncc1C(C)n1cc(C(=O)NC2CC(C)(c3cc(Cl)ccc3C#N)C2)nn1` (single isomer, unassigned) [Example 82, N-((cis)-3-(5-chloro-2-cyanophenyl)-3-methylcyclobutyl)-1-((R or S)-1-(4-methyl-2-((1R,5S)-2-oxo-3-azabicyclo[3.1.0]hexan-3-yl)pyrimidin-5-yl)ethyl)-1H-1,2,3-triazole-4-carboxamide] returned a concentration for half-maximal inhibition (IC50) of 0.6 nM. This lies in the sub-nanomolar range. With `Cc1nc(N2C[C@H]3C[C@H]3C2=O)ncc1C(C)n1cc(C(=O)NC2CC(C)(c3cc(Cl)ccc3C#N)C2)nn1` (single isomer, unassigned) [Example 83, N-((cis)-3-(5-chloro-2-cyanophenyl)-3-methylcyclobutyl)-1-((S or R)-1-(4-methyl-2-((1R,5S)-2-oxo-3-azabicyclo[3.1.0]hexan-3-yl)pyrimidin-5-yl)ethyl)-1H-1,2,3-triazole-4-carboxamide] the figure was 39.5 nM; with `Cc1nc([C@@H](C)n2cc(C(=O)N[C@H]3C[C@@H](c4cc(Cl)ccc4C#N)C3)nn2)cnc1N1C[C@H]2CC2C1=O` (single isomer, unassigned) [Example 84], 1.6 nM. The result for `Cc1nc(C(C)n2cc(C(=O)N[C@H]3C[C@@H](c4cc(Cl)ccc4C#N)C3)nn2)cnc1N1C[C@H]2CC2C1=O` (single isomer, unassigned) [Example 85] reads 0.9 nM.

`Cc1c(C(C)n2cc(C(=O)N[C@H]3C[C@@H](c4cc(Cl)ccc4C#N)C3)nn2)cnc(N2C[C@H]3C[C@H]3C2=O)c1C` (single isomer, unassigned) [Example 86, N-((cis)-3-(5-chloro-2-cyanophenyl)cyclobutyl)-1-((R or S)-1-(4,5-dimethyl-6-((1R,5S)-2-oxo-3-azabicyclo[3.1.0]hexan-3-yl)pyridin-3-yl)ethyl)-1H-1,2,3-triazole-4-carboxamide] registered a half-inhibitory concentration (IC50) of 1.1 nM.

The compound `Cc1c(C(C)n2cc(C(=O)N[C@H]3C[C@@H](c4cc(Cl)ccc4C#N)C3)nn2)cnc(N2C[C@H]3C[C@H]3C2=O)c1C` (single isomer, unassigned) [Example 87, N-((cis)-3-(5-chloro-2-cyanophenyl)cyclobutyl)-1-((S or R)-1-(4,5-dimethyl-6-((1R,5S)-2-oxo-3-azabicyclo[3.1.0]hexan-3-yl)pyridin-3-yl)ethyl)-1H-1,2,3-triazole-4-carboxamide] gave a 50% inhibitory concentration (IC50) of 0.5 nM. The result for `COc1cc(N2C[C@H]3C[C@H]3C2=O)ncc1C(C)n1cc(C(=O)N[C@H]2C[C@@H](c3cc(Cl)ccc3C#N)C2)nn1` (single isomer, unassigned) [Example 88, N-((cis)-3-(5-chloro-2-cyanophenyl)cyclobutyl)-1-((R or S)-1-(4-methoxy-6-((1R,5S)-2-oxo-3-azabicyclo[3.1.0]hexan-3-yl)pyridin-3-yl)ethyl)-1H-1,2,3-triazole-4-carboxamide] reads 11.3 nM; that for `COc1cc(N2C[C@H]3C[C@H]3C2=O)ncc1C(C)n1cc(C(=O)N[C@H]2C[C@@H](c3cc(Cl)ccc3C#N)C2)nn1` (single isomer, unassigned) [Example 89, N-((cis)-3-(5-chloro-2-cyanophenyl)cyclobutyl)-1-((S or R)-1-(4-methoxy-6-((1R,5S)-2-oxo-3-azabicyclo[3.1.0]hexan-3-yl)pyridin-3-yl)ethyl)-1H-1,2,3-triazole-4-carboxamide], 1.1 nM; that for `Cc1cc(N2C[C@H]3C[C@H]3C2=O)cnc1C(C)n1cc(C(=O)N[C@H]2C[C@@H](c3cc(Cl)ccc3C#N)C2)nn1` (single isomer, unassigned) [Example 90, N-((cis)-3-(5-chloro-2-cyanophenyl)cyclobutyl)-1-((R or S)-1-(3-methyl-5-((1R,5S)-2-oxo-3-azabicyclo[3.1.0]hexan-3-yl)pyridin-2-yl)ethyl)-1H-1,2,3-triazole-4-carboxamide], 153 nM. With `Cc1cc(N2C[C@H]3C[C@H]3C2=O)cnc1C(C)n1cc(C(=O)N[C@H]2C[C@@H](c3cc(Cl)ccc3C#N)C2)nn1` (single isomer, unassigned) [Example 91, N-((cis)-3-(5-chloro-2-cyanophenyl)cyclobutyl)-1-((S or R)-1-(3-methyl-5-((1R,5S)-2-oxo-3-azabicyclo[3.1.0]hexan-3-yl)pyridin-2-yl)ethyl)-1H-1,2,3-triazole-4-carboxamide] the figure was 1.5 nM; with `CC(c1ncc(N2C[C@H]3C[C@H]3C2=O)cc1F)n1cc(C(=O)N[C@H]2C[C@@H](c3cc(Cl)ccc3C#N)C2)nn1` (single isomer, unassigned) [Example 92, N-((cis)-3-(5-chloro-2-cyanophenyl)cyclobutyl)-1-((R or S)-1-(3-fluoro-5-((1R,5S)-2-oxo-3-azabicyclo[3.1.0]hexan-3-yl)pyridin-2-yl)ethyl)-1H-1,2,3-triazole-4-carboxamide], 38.1 nM. The result for `CC(c1ncc(N2C[C@H]3C[C@H]3C2=O)cc1F)n1cc(C(=O)N[C@H]2C[C@@H](c3cc(Cl)ccc3C#N)C2)nn1` (single isomer, unassigned) [Example 93, N-((cis)-3-(5-chloro-2-cyanophenyl)cyclobutyl)-1-((S or R)-1-(3-fluoro-5-((1R,5S)-2-oxo-3-azabicyclo[3.1.0]hexan-3-yl)pyridin-2-yl)ethyl)-1H-1,2,3-triazole-4-carboxamide] reads 4.3 nM.

`Cc1nc(N2C[C@H]3C[C@H]3C2=O)ccc1C(C)n1cc(C(=O)N[C@H]2C[C@@H](c3cc(Cl)ccc3C#N)C2)nn1` (single isomer, unassigned) [Example 94, N-((cis)-3-(5-chloro-2-cyanophenyl)cyclobutyl)-1-((R or S)-1-(2-methyl-6-((1R,5S)-2-oxo-3-azabicyclo[3.1.0]hexan-3-yl)pyridin-3-yl)ethyl)-1H-1,2,3-triazole-4-carboxamide] registered a concentration for half-maximal inhibition (IC50) of 178 nM. Against the preceding compound, the IC50 is about 41-fold higher. With `Cc1nc(N2C[C@H]3C[C@H]3C2=O)ccc1C(C)n1cc(C(=O)N[C@H]2C[C@@H](c3cc(Cl)ccc3C#N)C2)nn1` (single isomer, unassigned) [Example 95, N-((cis)-3-(5-chloro-2-cyanophenyl)cyclobutyl)-1-((S or R)-1-(2-methyl-6-((1R,5S)-2-oxo-3-azabicyclo[3.1.0]hexan-3-yl)pyridin-3-yl)ethyl)-1H-1,2,3-triazole-4-carboxamide] the figure was 10.7 nM; with `Cc1c(C(C)n2cc(C(=O)N[C@H]3C[C@@H](c4cc(Cl)ccc4C#N)C3)nn2)cnc(N2C[C@H]3C[C@H]3C2=O)c1F` (single isomer, unassigned) [Example 96, N-((cis)-3-(5-chloro-2-cyanophenyl)cyclobutyl)-1-((R or S)-1-(5-fluoro-4-methyl-6-((1R,5S)-2-oxo-3-azabicyclo[3.1.0]hexan-3-yl)pyridin-3-yl)ethyl)-1H-1,2,3-triazole-4-carboxamide], 0.2 nM; with `Cc1c(C(C)n2cc(C(=O)N[C@H]3C[C@@H](c4cc(Cl)ccc4C#N)C3)nn2)cnc(N2C[C@H]3C[C@H]3C2=O)c1F` (single isomer, unassigned) [Example 97, N-((cis)-3-(5-chloro-2-cyanophenyl)cyclobutyl)-1-((S or R)-1-(5-fluoro-4-methyl-6-((1R,5S)-2-oxo-3-azabicyclo[3.1.0]hexan-3-yl)pyridin-3-yl)ethyl)-1H-1,2,3-triazole-4-carboxamide], 4.4 nM. With `Cc1ccc(C#N)c([C@H]2C[C@@H](NC(=O)c3cn(C(C)c4cnc(N5C[C@H]6C[C@H]6C5=O)c(C)c4C)nn3)C2)n1` (single isomer, unassigned) [Example 98, N-((cis)-3-(3-cyano-6-methylpyridin-2-yl)cyclobutyl)-1-((R or S)-1-(4,5-dimethyl-6-((1R,5S)-2-oxo-3-azabicyclo[3.1.0]hexan-3-yl)pyridin-3-yl)ethyl)-1H-1,2,3-triazole-4-carboxamide] the figure was 27.5 nM; with `Cc1ccc(C#N)c([C@H]2C[C@@H](NC(=O)c3cn(C(C)c4cnc(N5C[C@H]6C[C@H]6C5=O)c(C)c4C)nn3)C2)n1` (single isomer, unassigned) [Example 99, N-((cis)-3-(3-cyano-6-methylpyridin-2-yl)cyclobutyl)-1-((S or R)-1-(4,5-dimethyl-6-((1R,5S)-2-oxo-3-azabicyclo[3.1.0]hexan-3-yl)pyridin-3-yl)ethyl)-1H-1,2,3-triazole-4-carboxamide], 0.6 nM; with `COc1cc(C(C)n2cc(C(=O)N[C@H]3C[C@@H](c4cc(Cl)ccc4C#N)C3)nn2)cnc1N1C[C@H]2C[C@H]2C1=O` (single isomer, unassigned) [Example 101, N-((cis)-3-(5-chloro-2-cyanophenyl)cyclobutyl)-1-((R or S)-1-(5-methoxy-6-((1R,5S)-2-oxo-3-azabicyclo[3.1.0]hexan-3-yl)pyridin-3-yl)ethyl)-1H-1,2,3-triazole-4-carboxamide], 1.8 nM. The result for `COc1cc(C(C)n2cc(C(=O)N[C@H]3C[C@@H](c4cc(Cl)ccc4C#N)C3)nn2)cnc1N1C[C@H]2C[C@H]2C1=O` (single isomer, unassigned) [Example 102, N-((cis)-3-(5-chloro-2-cyanophenyl)cyclobutyl)-1-((S or R)-1-(5-methoxy-6-((1R,5S)-2-oxo-3-azabicyclo[3.1.0]hexan-3-yl)pyridin-3-yl)ethyl)-1H-1,2,3-triazole-4-carboxamide] reads 3.2 nM. In turn, `CC(c1cnc(N2C[C@H]3C[C@H]3C2=O)c(F)c1)n1cc(C(=O)N[C@H]2C[C@@H](c3cc(Cl)ccc3C#N)C2)nn1` (single isomer, unassigned) [Example 103, N-((cis)-3-(5-chloro-2-cyanophenyl)cyclobutyl)-1-((R or S)-1-(5-fluoro-6-((1R,5S)-2-oxo-3-azabicyclo[3.1.0]hexan-3-yl)pyridin-3-yl)ethyl)-1H-1,2,3-triazole-4-carboxamide] showed an IC50 of 2.1 nM. This IC50 lies about 1.5-fold lower than the previous one.
